The experiment deals with palmitoylation of GAP43:GFP in MDCK cells. The experiment can be described thus: Localization of the palmitoylation reporter GAP43:GFP at the plasma membrane, by microscopy and HTM algorithm. The experiment is classed as cell-based. The settings on record: for effect on palmitoylation / PM localization of GAP43:GFP: MDCK cells transiently transfected with GAP43:GFP, incubation in 100 μM 2BP. From the text:
FIGS. 2A-2D provide characterization of the reporter of S-palmitoylation. […] Cells in FIGS. 2B, 2C and 2D are representative of many having the same morphology.
FIGS. 5A-5D illustrate the simple case of quantifying whether or not GAP43:GFP is on the PM or in the cytoplasm using the HTM algorithm. In this analysis, MDCK cells (the same images as presented in FIGS. 2A-2D), transiently transfected with GFP alone are presented in FIG. 5A; transiently transfected with GAP43:GFP are presented in FIG. 5B; and transiently transfected with GAP43:GFP in the presence of 100 μM 2BP are presented in FIG. 5C.
FIG. 6 presents a quantitative analysis of the time course of translocation of GAP43:GFP from the plasma membrane in response to 100 μM 2BP: residence half life of palmitoylation. MDCK cells stably expressing GAP43:GFP were exposed to 100 μM 2BP for 6 hours. During this time, the same field of view of cells was imaged repeatedly in two channels Hoechst/nucleus (see FIG. 6A) and GFP/PM (see FIG. 6B) on the EIDAQ100 (the three images: 6A, 6B and 6C are at time 0). The PM mask (green lines) defined by the program is shown in FIG. 6C; the nucleus is delimited by red lines. By determining the average fluorescence intensity of the area defined by the PM mask (see FIG. 6D), PM labeling was reduced by 80% from the maximum (or starting) density during the 6 hour period.
This algorithm is able to make a simple binary decision of whether GAP43:GFP is on the PM or in the cytoplasm (see FIG. 5) as well as fine incremental determinations (see FIG. 6) of the quantity of fluorescence on the PM, thereby extending the capability beyond what is necessary to score the primary screen for trapped genes. Two important questions are answered here. Data in FIGS. 5A-5D illustrate that the algorithm is sufficient to ensure success in a screen to find genes critical in the pathway for palmitoylation of the reporter in an ICR-2A reporter cell line.

On to `CCCCCCCCCCCCCCC(Br)C(=O)O` (stereo not drawn) [2BP, 2-bromopalmitate], for which the “effect on palmitoylation / PM localization of GAP43:GFP” value is “localization to the PM has been inhibited”. The “reduction of PM labeling (average fluorescence intensity of the area defined by the PM mask) from the maximum (starting) density” value (MDCK cells stably expressing GAP43:GFP, 100 μM 2BP, 6 hour period, EIDAQ100 imaging) is reported as 80%. Besides, the “effect on palmitoylation / PM localization of GAP43:GFP” value (listed as 2-bromopalmitate) is listed as “palmitoylation is inhibited”.

(Values after US20080206744A1, “Functional Genomics and Gene Trapping in Haploid or Hypodiploid Cells” (priority 2004, published 2008).)
